Measured values from patent US12065443B2, “Compounds and pharmaceutical compositions thereof for the treatment of diseases” (priority 2017, dated 2024).

What was measured:
Test in all cases: biochemical
SIK1 = biological target: T1, SIK1 (Homo sapiens, UniProt P57059); details: 33P radioactive SIK kinase assay, AMARA peptide, 10 μM ATP; read-out: SIK1 IC50
T1 construct: purchased Carna Biosciences 02-131
Protocol: (§1) The principle of the ^33P radioactive kinase assay consists in measuring the incorporated ^33P into the substrate AMARA peptide when phosphorylated by SIK1, SIK2 or SIK3 using [^33P]-g-ATP, which correlates with kinase activity.
(§2) 1% DMSO and 10 μM staurosporine final concentrations are used as negative and positive controls.
(§3) 11 μL of enzyme-substrate mixture is added on the assay plates. The reactions are started by adding 9 μL ATP mixture, consisting of non-labeled and ^33P-labeled ATP, on the assay plates.
(§4) The reactions are stopped by adding 25 μL phosphoric acid (150 mM) to the reactions.
(§5) After harvesting the kinase reactions, the filter plates are washed 6 times with phosphoric acid (75 mM). […] The top of the plates are sealed with TopSeal-A. Read-out is performed with a TopCount instrument (PerkinElmer Inc.).

SIK2 = biological target: T2, SIK2 (Homo sapiens, UniProt Q9H0K1); details: 33P radioactive SIK kinase assay, AMARA peptide, 10 μM ATP
T2 construct: purchased ThermoFisher Scientific PV4792
Protocol: as §1, §2, §3, §4, §5

SIK3 = biological target: T3, SIK3 (Homo sapiens, UniProt Q9Y2K2)
T3 construct: purchased SignalChem S12-11G-100
Protocol: as §1, §2, §3, §4, §5

T2 sequence (Q9H0K1 whole entry): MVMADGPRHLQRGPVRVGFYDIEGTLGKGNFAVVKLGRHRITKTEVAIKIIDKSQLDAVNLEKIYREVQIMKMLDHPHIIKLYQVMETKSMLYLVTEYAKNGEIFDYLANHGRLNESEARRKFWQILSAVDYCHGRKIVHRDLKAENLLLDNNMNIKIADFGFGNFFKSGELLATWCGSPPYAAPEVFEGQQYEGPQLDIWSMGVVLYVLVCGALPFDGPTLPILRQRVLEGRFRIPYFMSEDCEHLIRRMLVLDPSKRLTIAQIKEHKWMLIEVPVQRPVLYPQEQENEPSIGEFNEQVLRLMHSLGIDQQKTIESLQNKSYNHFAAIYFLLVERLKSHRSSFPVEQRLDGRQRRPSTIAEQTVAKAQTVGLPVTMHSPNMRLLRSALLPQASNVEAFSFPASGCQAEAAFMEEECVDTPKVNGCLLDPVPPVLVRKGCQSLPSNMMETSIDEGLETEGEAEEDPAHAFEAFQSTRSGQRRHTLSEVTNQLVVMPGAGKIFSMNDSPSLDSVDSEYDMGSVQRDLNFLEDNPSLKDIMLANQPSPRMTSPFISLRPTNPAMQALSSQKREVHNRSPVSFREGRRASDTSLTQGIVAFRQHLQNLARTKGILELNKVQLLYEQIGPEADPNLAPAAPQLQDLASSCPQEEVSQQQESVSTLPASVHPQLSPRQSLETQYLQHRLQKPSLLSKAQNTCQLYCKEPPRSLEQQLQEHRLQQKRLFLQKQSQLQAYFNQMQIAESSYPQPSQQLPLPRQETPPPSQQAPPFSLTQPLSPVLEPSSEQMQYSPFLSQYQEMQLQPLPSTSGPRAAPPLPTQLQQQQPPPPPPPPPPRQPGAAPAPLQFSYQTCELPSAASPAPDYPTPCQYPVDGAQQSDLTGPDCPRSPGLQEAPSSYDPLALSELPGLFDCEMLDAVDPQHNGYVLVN
T3 sequence (Q9Y2K2 whole entry): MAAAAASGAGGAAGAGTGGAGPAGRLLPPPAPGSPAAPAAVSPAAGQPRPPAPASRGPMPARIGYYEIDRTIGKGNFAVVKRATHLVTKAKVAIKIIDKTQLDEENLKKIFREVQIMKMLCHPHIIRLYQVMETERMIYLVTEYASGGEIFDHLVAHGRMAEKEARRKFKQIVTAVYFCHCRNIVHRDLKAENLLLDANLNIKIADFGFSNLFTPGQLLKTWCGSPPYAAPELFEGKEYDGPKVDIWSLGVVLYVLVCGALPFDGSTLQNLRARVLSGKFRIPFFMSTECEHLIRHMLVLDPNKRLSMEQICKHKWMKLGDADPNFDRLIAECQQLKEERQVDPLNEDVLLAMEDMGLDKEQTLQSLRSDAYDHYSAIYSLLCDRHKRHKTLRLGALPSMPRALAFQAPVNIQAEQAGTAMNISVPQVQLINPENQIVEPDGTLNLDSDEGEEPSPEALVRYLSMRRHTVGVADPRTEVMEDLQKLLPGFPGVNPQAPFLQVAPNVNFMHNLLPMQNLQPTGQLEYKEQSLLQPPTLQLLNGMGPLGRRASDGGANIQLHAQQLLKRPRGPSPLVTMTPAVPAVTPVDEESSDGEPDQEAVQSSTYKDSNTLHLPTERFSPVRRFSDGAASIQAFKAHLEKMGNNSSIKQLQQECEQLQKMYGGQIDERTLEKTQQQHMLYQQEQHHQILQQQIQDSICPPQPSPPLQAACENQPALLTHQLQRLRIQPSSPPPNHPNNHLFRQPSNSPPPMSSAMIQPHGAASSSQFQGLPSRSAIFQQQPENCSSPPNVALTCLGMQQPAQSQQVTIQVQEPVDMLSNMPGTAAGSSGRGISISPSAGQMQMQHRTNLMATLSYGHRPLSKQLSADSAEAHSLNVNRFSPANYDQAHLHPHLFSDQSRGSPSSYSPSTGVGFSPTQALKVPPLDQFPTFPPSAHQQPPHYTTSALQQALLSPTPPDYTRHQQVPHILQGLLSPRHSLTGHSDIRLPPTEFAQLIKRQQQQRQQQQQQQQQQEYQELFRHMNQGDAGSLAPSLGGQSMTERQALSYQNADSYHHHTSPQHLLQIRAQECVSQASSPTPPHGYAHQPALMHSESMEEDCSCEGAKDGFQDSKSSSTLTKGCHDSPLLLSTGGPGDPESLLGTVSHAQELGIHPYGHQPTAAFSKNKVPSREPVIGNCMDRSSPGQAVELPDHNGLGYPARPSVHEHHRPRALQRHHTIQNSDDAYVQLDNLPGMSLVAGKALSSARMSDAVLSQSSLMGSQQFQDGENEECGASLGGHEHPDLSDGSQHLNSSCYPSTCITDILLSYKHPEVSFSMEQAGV
T1 sequence (P57059 whole entry): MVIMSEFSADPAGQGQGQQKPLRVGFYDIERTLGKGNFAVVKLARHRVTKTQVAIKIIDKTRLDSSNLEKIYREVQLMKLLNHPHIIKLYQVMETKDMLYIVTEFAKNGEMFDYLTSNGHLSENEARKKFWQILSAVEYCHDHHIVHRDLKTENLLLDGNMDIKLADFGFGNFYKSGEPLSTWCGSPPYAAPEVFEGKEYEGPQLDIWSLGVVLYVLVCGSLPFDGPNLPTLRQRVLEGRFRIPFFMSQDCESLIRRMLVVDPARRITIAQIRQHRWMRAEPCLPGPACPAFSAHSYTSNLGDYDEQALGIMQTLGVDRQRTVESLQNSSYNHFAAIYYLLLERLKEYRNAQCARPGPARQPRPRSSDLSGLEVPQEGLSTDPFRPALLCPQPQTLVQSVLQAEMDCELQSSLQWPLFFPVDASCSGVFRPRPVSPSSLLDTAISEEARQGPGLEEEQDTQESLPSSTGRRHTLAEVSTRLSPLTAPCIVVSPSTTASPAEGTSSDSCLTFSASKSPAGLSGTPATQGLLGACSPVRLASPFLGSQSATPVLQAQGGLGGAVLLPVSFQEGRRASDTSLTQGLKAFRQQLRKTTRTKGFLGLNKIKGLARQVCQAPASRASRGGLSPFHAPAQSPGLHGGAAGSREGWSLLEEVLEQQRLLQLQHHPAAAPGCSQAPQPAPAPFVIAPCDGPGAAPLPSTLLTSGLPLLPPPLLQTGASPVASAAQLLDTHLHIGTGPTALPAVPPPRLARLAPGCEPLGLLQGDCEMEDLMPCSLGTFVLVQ

| Compound | IC50 (SIK1) [nM] | IC50 (SIK2) [nM] | IC50 (SIK3) [nM] |
| --- | --- | --- | --- |
| COc1cc(-n2cnc3cc(-c4cccnc4)ccc32)cc(OC)c1C(=O)NCC(F)(F)F [compound 39, 2,6-dimethoxy-4-[5-(3-pyridyl)benzimidazol-1-yl]-N-(2,2,2-trifluoroethyl)benzamide] | 100 to 500 | 10 to 100 | 10 to 100 |
| COc1cc(-n2cnc3cc(-c4nnc(C)n4C)ccc32)cc(OC)c1C(=O)NCC(F)(F)F [Cpd 168, 4-[5-(4,5-dimethyl-1,2,4-triazol-3-yl)benzimidazol-1-yl]-2,6-dimethoxy-N-(2,2,2-trifluoroethyl)benzamide] | > 500 | > 500 | > 500 |
| COc1cc(-n2cnc3cc(-c4cnn(C)c4)ccc32)cc(OC)c1C(=O)Nc1cnc(C)cn1 [Cpd 70, 2,6-dimcthoxy-N-(5-methylpyrazin-2-yl)-4-[5-(1-methylpyrazol-4-yl)benzimidazol-1-yl]benzamide] | 100 to 500 | 10 to 100 | 100 to 500 |
| COc1cc(-n2cnc3cc(-c4cnn(C)c4)ccc32)cc(OC)c1C(=O)N1CCC1c1ccccc1 (stereo not drawn) [compound 187, [2,6-dimethoxy-4-[5-(1-methylpyrazol-4-yl)benzimidazol-1-yl]phenyl]-(2-phenylazetidin-1-yl)methanone] | > 500 | > 500 | > 500 |
| COc1cc(-n2cnc3cc(-c4cnn(C)c4)ccc32)cc(OC)c1C(=O)N[C@H]1CCCC[C@@H]1O [compound 164] | 100 to 500 | 100 to 500 | > 500 |
| COc1cc(-n2cnc3cc(-c4cnn(C)c4)ccc32)cc(OC)c1C(=O)N1C(C)CC1(C)C (stereo not drawn) [compound 189, [2,6-dimethoxy-4-[5-(1-methylpyrazol-4-yl)benzimidazol-1-yl]phenyl]-(2,2,4-trimethylazetidin-1-yl)methanone] | > 500 | > 500 | > 500 |
| COc1cc(-n2cnc3cc(-c4cnn(C)c4)ccc32)cc(OC)c1C(=O)NCCF [compound 79, N-(2-fluoroethyl)-2,6-dimethoxy-4-[5-(1-methylpyrazol-4-yl)benzimidazol-1-yl]benzamide] | 10 to 100 | 0.01 to 10 | 0.01 to 10 |
| COc1cc(-c2cnc3cc(-c4cnc(N)nc4)ccn23)cc(OC)c1C(=O)NCC(F)(F)F [compound 246, 4-[7-(2-aminopyrimidin-5-yl)imidazo[1,2-a]pyridin-3-yl]-2,6-dimethoxy-N-(2,2,2-trifluoroethyl)benzamide] | 10 to 100 | 10 to 100 | 0.01 to 10 |
| CCC1(O)CN(C(=O)c2c(OC)cc(-n3cnc4cc(-c5cnn(C)c5)ccc43)cc2OC)C1 [compound 218, [2,6-dimethoxy-4-[5-(1-methylpyrazol-4-yl)benzimidazol-1-yl]phenyl]-(3-ethyl-3-hydroxy-azetidin-1-yl)methanone] | 10 to 100 | 10 to 100 | 100 to 500 |
| COc1cc(-n2cnc3cc(-c4cnn(C)c4)ccc32)cc(OC)c1C(=O)N1CCC1CO (stereo not drawn) [compound 193, [2,6-dimethoxy-4-[5-(1-methylpyrazol-4-yl)benzimidazol-1-yl]phenyl]-[2-(hydroxymethyl)azetidin-1-yl]methanone] | > 500 | > 500 | > 500 |
| COc1cc(-n2cnc3cc(-c4cnn(C)c4)ccc32)cc(OC)c1C(=O)N1CCC1C (stereo not drawn) [compound 182, [2,6-dimethoxy-4-[5-(1-methylpyrazol-4-yl)benzimidazol-1-yl]phenyl]-(2-methylazetidin-1-yl)methanone] | > 500 | > 500 | > 500 |
| COc1cc(-n2cnc3cc(-c4cnn(C)c4)ccc32)cc(OC)c1C(=O)N1CC(OCc2ccccc2)C1 [compound 186, (3-benzyloxyazetidin-1-yl)-[2,6-dimethoxy-4-[5-(1-methylpyrazol-4-yl)benzimidazol-1-yl]phenyl]methanone] | 10 to 100 | 100 to 500 | 100 to 500 |
| CCn1cc(-c2ccc3c(c2)ncn3-c2cc(OC)c(C(=O)NC3CCCC3)c(OC)c2)cn1 [compound 45, N-cyclopentyl-4-[5-(1-ethylpyrazol-4-yl)benzimidazol-1-yl]-2,6-dimethoxy-benzamide] | 10 to 100 | 10 to 100 | 10 to 100 |
| COc1cc(-n2cnc3cc(-c4cnn(C)c4)ccc32)cc(OC(F)F)c1C(=O)NC(C)(C)C [compound 199, N-tert-butyl-2-(difluoromethoxy)-6-methoxy-4-[5-(1-methylpyrazol-4-yl)benzimidazol-1-yl]benzamide] | > 500 | > 500 | > 500 |
| COc1cc(-n2cnc3cc(-c4cncn4C)ccc32)cc(OC)c1C(=O)NCC(F)(F)F [compound 135, 2,6-dimethoxy-4-[5-(3-methylimidazol-4-yl)benzimidazol-1-yl]-N-(2,2,2-trifluoroethyl)benzamide] | > 500 | 100 to 500 | 100 to 500 |
| COc1cc(-n2cnc3cc(-c4cnn(C)c4)ccc32)cc(OC)c1C(=O)NCCC#N [compound 59, N-(2-cyanoethyl)-2,6-dimethoxy-4-[5-(1-methylpyrazol-4-yl)benzimidazol-1-yl]benzamide] | 10 to 100 | 10 to 100 | 10 to 100 |
| COc1cc(-n2cnc3cc(-c4cnn(C)c4)ccc32)cc(OC)c1C(=O)Nc1cnn(C)c1 [compound 83, 2,6-dimethoxy-N-(1-methylpyrazol-4-yl)-4-[5-(1-methylpyrazol-4-yl)benzimidazol-1-yl]benzamide] | 100 to 500 | 100 to 500 | 100 to 500 |
| COc1cc(-n2cnc3cc(-c4cnn(C)c4)ccc32)cc(OC)c1C(=O)NC1CCC1 [compound 77, N-cyclobutyl-2,6-dimethoxy-4-[5-(1-methylpyrazol-4-yl)benzimidazol-1-yl]benzamide] | 10 to 100 | 10 to 100 | 10 to 100 |
| CCNC(=O)c1c(O)cc(-n2cnc3cc(-c4cnn(CC)c4)ccc32)cc1OC [compound 23, N-ethyl-4-[5-(1-ethylpyrazol-4-yl)benzimidazol-1-yl]-2-hydroxy-6-methoxy-benzamide] | 10 to 100 | 10 to 100 | 10 to 100 |
| COc1cc(-n2cnc3cc(-c4cnn(C)c4)ccc32)cc(OC)c1C(=O)NC1CCC[C@@H]1O (stereo in doubt) [compound 141, N-[(1R,2S)-2-hydroxycyclopentyl]-2,6-dimethoxy-4-[5-(1-methylpyrazol-4-yl)benzimidazol-1-yl]benzamide] | 10 to 100 | 10 to 100 | 10 to 100 |
| COc1cc(-n2cnc3cc(-c4cnn(C)c4)ccc32)cc(OC)c1C(=O)NCC#N [compound 75] | 10 to 100 | 0.01 to 10 | 0.01 to 10 |
| COc1cc(-n2cnc3cc(-c4cnn(C)c4)ccc32)cc(OC)c1C(=O)NC1CS(=O)(=O)C1 [compound 64, N-(1,1-dioxothietan-3-yl)-2,6-dimethoxy-4-[5-(1-methylpyrazol-4-yl)benzimidazol-1-yl]benzamide] | 100 to 500 | 10 to 100 | 10 to 100 |
| COc1cncc(-c2ccc3c(c2)ncn3-c2cc(OC)c(C(=O)NCC(F)(F)F)c(OC)c2)c1 [compound 35, 2,6-dimethoxy-4-[5-(5-methoxy-3-pyridyl)benzimidazol-1-yl]-N-(2,2,2-trifluoroethyl)benzamide] | 100 to 500 | 100 to 500 | 10 to 100 |
| COc1cc(-c2cnc3cc(-c4ccnnc4)ccn23)cc(OC)c1C(=O)NCC(F)(F)F [compound 247, 2,6-dimethoxy-4-(7-pyridazin-4-ylimidazo[1,2-a]pyridin-3-yl)-N-(2,2,2-trifluoroethyl)benzamide] | 10 to 100 | 10 to 100 | 0.01 to 10 |
| COc1cc(-n2cnc3cc(-c4cnn(C)c4)ccc32)cc(OC)c1C(=O)NC1CCCC1(F)F (stereo not drawn) [compound 90, N-(2,2-difluorocyclopentyl)-2,6-dimethoxy-4-[5-(1-methylpyrazol-4-yl)benzimidazol-1-yl]benzamide] | 10 to 100 | 10 to 100 | 10 to 100 |
| COCCN(C)C(=O)c1c(OC)cc(-c2cnc3cc(-c4cnn(C)c4)ccn23)cc1OC [compound 131, 2,6-dimethoxy-N-(2-methoxyethyl)-N-methyl-4-[7-(1-methylpyrazol-4-yl)imidazo[1,2-a]pyridin-3-yl]benzamide] | > 500 | 100 to 500 | 100 to 500 |
| COc1cc(-n2cnc3cc(-c4ccc(C#N)nc4)ccc32)cc(OC)c1C(=O)NCC(F)(F)F [compound 36, 4-[5-(6-cyano-3-pyridyl)benzimidazol-1-yl]-2,6-dimethoxy-N-(2,2,2-trifluoroethyl)benzamide] | 100 to 500 | 10 to 100 | 10 to 100 |
| CCn1cc(-c2ccc3c(c2)ncn3-c2cc(OC)c(C(=O)N(C)CC(C)C)c(OC)c2)cn1 [compound 28, 4-[5-(1-ethylpyrazol-4-yl)benzimidazol-1-yl]-N-isobutyl-2,6-dimethoxy-N-methyl-benzamide] | > 500 | > 500 | > 500 |
| COc1cc(-n2cnc3cc(-c4cnn(C)c4)ccc32)cc(OC)c1C(=O)NCc1nccn1C [compound 71, 2,6-dimethoxy-N-[(1-methylimidazol-2-yl)methyl]-4-[5-(1-methylpyrazol-4-yl)benzimidazol-1-yl]benzamide] | 100 to 500 | 10 to 100 | 100 to 500 |
